Results: article PMC11191602, “A novel and selective fluorescent ligand for the study of adenosine A2B receptors” (Pharmacology Research & Perspectives, 2024)

Columns and labels:
[1] = biological target: T1, endogenous A2BR in human monocyte‐derived M2‐like macrophages (Homo sapiens, UniProt P29275); assay: Flow cytometry of PSB603‐BY630 binding to M2‐like macrophages; type: cell-based; conditions: 100 nM PSB603‐BY630, 10 μM unlabelled PSB603, six donors, p <.01 paired t‐test
T1 construct: monitor endogenous A2BR expression on human macrophages; endogenous in cells; host or cells: M1-like (GMCSF) and M2-like (MCSF) macrophages differentiated from CD14+ monocytes of healthy human donors
T1 sequence (P29275 1-332): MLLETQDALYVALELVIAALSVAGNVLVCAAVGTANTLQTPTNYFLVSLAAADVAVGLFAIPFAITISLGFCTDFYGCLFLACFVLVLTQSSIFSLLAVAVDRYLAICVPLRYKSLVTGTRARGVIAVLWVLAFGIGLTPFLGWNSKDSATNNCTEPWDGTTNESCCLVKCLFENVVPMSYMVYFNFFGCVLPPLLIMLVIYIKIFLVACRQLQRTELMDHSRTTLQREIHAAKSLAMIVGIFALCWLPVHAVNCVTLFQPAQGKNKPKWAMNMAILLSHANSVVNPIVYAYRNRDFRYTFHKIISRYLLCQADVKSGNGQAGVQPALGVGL
Protocol: (§1) One hundred and fifty milliliter peripheral blood was obtained in heparinised 60 mL syringes by venepuncture from healthy volunteers after written informed consent (Ethics from University of Nottingham Ethics committee, ref 161–1711). Peripheral blood mononuclear cells (PBMC) were immediately separated by density centrifugation over Lymphoprep (Stemcell, UK) at 800g for 25 min on low brake followed by washes in endotoxin‐free phosphate‐buffered saline (PBS, Sigma). PBMC were washed in MACS buffer (PBS + 1% fetal calf serum (FCS, Sigma) + […] (Sigma)) then incubated with CD14 microbeads (Miltenyi Biotech) and monocytes isolated by magnetic separation on an AutoMACS Pro cell separator (Miltenyi). Cell purity was routinely assessed by flow cytometry (>95%). […]
(§2) Harvested macrophages were resuspended in staining buffer (HBSS [Sigma] supplemented with 2.5% v/v FCS and Ethylenediaminetetraacetic acid‐ EDTA 5 mM) at 2 × 10^6 cells/mL. […] BODIPY 630/650 fluorescence was measured on a MACSQuant 10 Flow Cytometer (Miltenyi) immediately after incubation (>5 × 10^4 events acquired). Flow cytometry data were analyzed using FlowJo software v10. […]

A2BR = system: A2BR; parameters: method as in PMID 29106905, PMID 19569717; conditions: cited from earlier work
[2] = biological target: T2, endogenous A2BR in human monocyte‐derived M1‐like macrophages (Homo sapiens, UniProt P29275); assay: Flow cytometry of PSB603‐BY630 binding to M1‐like macrophages; type: cell-based; conditions: 100 nM PSB603‐BY630, 10 μM unlabelled PSB603, six donors, p <.01 paired t‐test
T2 construct: monitor endogenous A2BR expression on human macrophages; endogenous in cells; host or cells: M1-like (GMCSF) and M2-like (MCSF) macrophages differentiated from CD14+ monocytes of healthy human donors
T2 sequence (P29275 1-332): T1 sequence (P29275 1-332)
Protocol: as §1, §2

NLuc‐A2BR = biological target: T3, NLuc‐A2BR (Homo sapiens, UniProt P29275); assay: NanoBRET competition binding against 50 nM PSB603‐BY630 in HEK293G cells expressing NLuc‐A2BR
T3 construct: expressed in transfected cells
T3 sequence (P29275 1-332): T1 sequence (P29275 1-332)
Protocol: Saturation and competition binding assays were performed as previously described.[36] Briefly, cells were seeded in 96‐well white clear‐bottomed Greiner plates pre‐treated with 10 μg/mL poly‐D‐lysine (Sigma‐Aldrich, Missouri USA) at a density of 30 000–35 000 cells per well in DMEM supplemented with 10% FBS. […] The NanoLuc substrate, furimazine (Promega Corporation, Wisconsin, USA), was then added to each well (1:400 dilution) and the plate was incubated for 10 min in the dark at 37°C. The resulting bioluminescence resonance energy transfer (BRET) was measured using a PHERAstar FS plate reader (BMG Labtech) at 37°C. For each well, filtered light emissions at 460 nm (80 nm bandpass) and >610 nm (longpass) for the BODIPY630/650 ligand were simultaneously measured. BRET ratios were calculated by dividing the 610 nm emission by the 460 nm emission. All conditions were performed in 2–6 replicates within each plate. For kinetic experiments, cells were preincubated for 10 min with 1:400 dilution of furimazine prior to addition of 200 nM PSB603‐BY630 and BRET ratios determined every 0.5 min.
The IC 50 values were then used to calculate the K i values using the Cheng‐Prussoff equation: Ki=IC50/1+L/KD where [L] is the concentration of PSB603‐BY630 in nM, and K D is the dissociation constant of that fluorescent ligand in nM.

For `CCCn1c(=O)[nH]c2nc(-c3ccc(S(=O)(=O)N4CCN(c5ccc(Cl)cc5)CC4)cc3)[nH]c2c1=O` [PSB603, 8‐[4‐[4‐(4‐Chlorophenzyl)piperazide‐1‐sulfonylphenyl]]‐1‐propylxanthine], the “inhibition of PSB603‐BY630 binding (median fluorescence intensity)” value [1] is listed as “significant inhibiton”, the “affinity for A2BR” value (A2BR) is listed as “sub‐nanomolar” and the “inhibition of PSB603‐BY630 binding (median fluorescence intensity)” value [2] is listed as “significant inhibiton”. For the same molecule, the “Appararent Log K i” value (NLuc‐A2BR) was −9.12 ± 0.08 and the “Log IC50” value (NLuc‐A2BR) was −8.55 ± 0.08.
